Read-outs that look alike come from different tables or passages of the source.
Experiment: Aqueous solubility of phosphate prodrugs compared with parent compounds
Format: physicochemical
Conditions: compounds of Examples in the form of their disodium salts
[1] = water (aqueous), read-out: Solubility

SMILES	solubility [1]	solubility
O=P(O)(O)OC(Cn1cncn1)(Cn1cncn1)c1ccc(F)cc1F [Example 1, 2-(2,4-Difluorophenyl)-1,3-bis(1H-1,2,4-triazol-1-yl)-2-propyl Dihydrogen Phosphate]	> 150 mg/mL	
C[C@@H](c1ncncc1F)[C@@](Cn1cncn1)(OP(=O)(O)O)c1ccc(F)cc1F [Example 3, (2R,3S)-2-(2,4-Difluorophenyl)-3-(5-fluoro-4-pyrimidinyl)-1-(1H-1,2,4-triazol-1-yl)-2-butyl dihydrogen phosphate]	> 150 mg/mL	
C[C@@H](c1ccc(-c2ccnn2C)cc1)[C@@](Cn1cncn1)(OP(=O)([O-])[O-])c1ccc(F)cc1F.[Na+].[Na+] [Example 8, (2R,3S)-2-(2,4-Difluorophenyl)-3-[4-(1-methylpyrazol-5-yl)phenyl]-1-(1,2,4-triazol-1-yl)-2-butyl disodium phosphate]		>50 mg/mL

From patent US6790957B2, “Triazole derivatives useful in therapy” (Pfizer, Inc., priority 1996, dated 2004)
